Patent publication US8552037B2, “Tricyclic compound and pharmaceutical use thereof” (Takeda Pharmaceutical Company Limited, priority 2006, dated 2013)

Tested on: not given
Assay: not given
Conditions: not given

Row | melting point [°C] | SMILES
1 | 148 to 150 | CCC(=O)NCC=C1CCc2ccc3ncoc3c21 [Example 2, N-[2-(6,7-Dihydro-8H-indeno[5,4-d][1,3]oxazol-8-ylidene)ethyl]propionamide]
2 | 188 to 190 | CC(=O)NCC=C1CCc2ccc3nc(C)oc3c21 [Example 3, N-[2-(2-Methyl-6,7-dihydro-8H-indeno[5,4-d][1,3]oxazol-8-ylidene)ethyl]acetamide]
3 | 154 to 156 | CC(=O)NCCC1=CCc2ccc3nc(C)oc3c21 [Example 4, N-[2-(2-Methyl-6H-indeno[5,4-d][1,3]oxazol-8-yl)ethyl]acetamide]
4 | 214 to 216 | CCC(=O)NCC=C1CCc2ccc3nc(C)oc3c21 [Example 5, N-[2-(2-Methyl-6,7-dihydro-8H-indeno[5,4-d][1,3]oxazol-8-ylidene)ethyl]propionamide]
5 | 113 to 115 | CC(=O)NCC=C1CCc2ccc3nc(CCCCc4ccccc4)oc3c21 [Example 6, N-{2-[2-(4-Phenylbutyl)-6,7-dihydro-8H-indeno[5,4-d][1,3]oxazol-8-ylidene]ethyl}acetamide]
6 | 111 to 113 | CCC(=O)NCC=C1CCc2ccc3nc(CCCCc4ccccc4)oc3c21 [Example 7, N-{2-[2-(4-Phenylbutyl)-6,7-dihydro-8H-indeno[5,4-d][1,3]oxazol-8-ylidene]ethyl}propionamide]
7 | 184 to 186 | CC(=O)NCC=C1CCc2ccc3nc(C)sc3c21 [Example 8, N-[2-(2-Methyl-6,7-dihydro-8H-indeno[5,4-d][1,3]thiazol-8-ylidene)ethyl]acetamide]
8 | 89 to 90 | CCC(=O)NCCC1CCc2ccc3ncoc3c21 (stereo not shown) [Example 10, N-[2-(7,8-Dihydro-6H-indeno[5,4-d][1,3]oxazol-8-yl)ethyl]propionamide]
9 | 76 to 78 | CCc1nc2ccc3c(c2o1)C(CCNC(C)=O)CC3 (stereo not shown) [Example 22, N-[2-(2-Ethyl-7,8-dihydro-6H-indeno[5,4-d][1,3]oxazol-8-yl)ethyl]acetamide]
10 | 132 to 134 | CC(=O)NCCC1CCc2ccc3nc(CO)oc3c21 (stereo not shown) [Example 23, N-{2-[2-(Hydroxymethyl)-7,8-dihydro-6H-indeno[5,4-d][1,3]oxazol-8-yl]ethyl}acetamide]
11 | 114 to 116 | CC(=O)NCCC1CCc2ccc3nc(C(F)(F)F)oc3c21 (stereo not shown) [Example 25, N-{2-[2-(Trifluoromethyl)-7,8-dihydro-6H-indeno[5,4-d][1,3]oxazol-8-yl]ethyl}acetamide]
12 | 111 to 112 | CC(=O)CCc1nc2ccc3c(c2o1)C(CCNC(C)=O)CC3 (stereo not shown) [Example 28, N-{2-[2-(3-Oxobutyl)-7,8-dihydro-6H-indeno[5,4-d][1,3]oxazol-8-yl]ethyl}acetamide]
13 | 92 to 95 | CC(=O)NCCC1CCc2ccc3nc(C4CC4)oc3c21 (stereo not shown) [Example 29, N-[2-(2-Cyclopropyl-7,8-dihydro-6H-indeno[5,4-d][1,3]oxazol-8-yl)ethyl]acetamide]
14 | 124 to 126 | CC(=O)NCCC1CCc2ccc3nc(-c4ccccc4)oc3c21 (stereo not shown) [Example 30, N-[2-(2-Phenyl-7,8-dihydro-6H-indeno[5,4-d][1,3]oxazol-8-yl)ethyl]acetamide]

Molecular target: human melatonin 2 receptors (human MT2 receptors) (Homo sapiens (Human), UniProt P49286)
Sequence (P49286 whole entry): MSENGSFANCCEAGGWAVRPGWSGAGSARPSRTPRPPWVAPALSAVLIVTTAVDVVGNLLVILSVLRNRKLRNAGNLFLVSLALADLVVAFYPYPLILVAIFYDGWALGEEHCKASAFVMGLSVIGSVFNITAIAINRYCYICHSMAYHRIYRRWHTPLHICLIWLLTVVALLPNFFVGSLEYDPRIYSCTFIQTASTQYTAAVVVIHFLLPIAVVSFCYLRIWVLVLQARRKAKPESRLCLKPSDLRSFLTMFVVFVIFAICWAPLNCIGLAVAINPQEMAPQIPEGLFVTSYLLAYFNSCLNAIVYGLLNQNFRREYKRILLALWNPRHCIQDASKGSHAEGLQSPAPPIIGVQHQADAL
Assay: Melatonin receptor binding assay, 2-[125I] Iodomelatonin, CHO-hMT2 cell membrane fraction
Conditions: binding inhibition of 2-[125I] Iodomelatonin, CHO-hMT2 membranes, 25° C., 2.5 hr
Description: (§1) Melatonin Receptor Binding Assay
(2) Preparation of CHO-hMT2 Cells Expressing Human Melatonin 2 Receptors
CHO-K1 cells (ATCC, #CCL-61) were plated at the concentration of 1.5×10^5 cells/cm^2 in a 6 well plate (ASAHI TECHNO GLASS), and cultured under the conditions of 37° C., 5% CO2 for 24 hr.
(§2) (3) Preparation of Cell Membrane Fraction of CHO Cell (CHO-hMelR7 and CHO-hMT2) Stably Expressing Human MT1 and MT2 Receptors
(§3) CHO-hMelR7 and CHO-hMT2 cells were plated using Cellfactory (Nunc, #170009) under the conditions of 1×10^8 cells/2000 mL/flask. The cells were grown to confluent, and recovered by the following method. As the medium for CHO-hMelR7 and CHO-hMT2, MEM α containing 10% FBS and penicillin/streptomycin was used. […] of geneticin was added to the medium for CHO-hMT2.
(§4) The medium was discarded, cells were washed twice with 200 mL of EDTA/PBS(−), 200 mL of EDTA/PBS(−) was further added, and the cells were stood still at room temperature for 20 min until they were released. […] The mixture was further centrifuged at 1,500 rpm for 10 min at 4° C., and the obtained pellets were suspended in 20 mL of ice-cooled homogenizing buffer [10 mM NaHCO3, 5 mM EDTA, Protease inhibitor Complete (Roche), pH 7.4]. The cell suspension was homogenized 3 times using a polytron homogenizer at 20,000 rpm for 30 sec. The obtained homogenate was centrifuged (2,000 rpm, 10 min, 4° C.) using a low speed cooling centrifuge. The supernatant was recovered in an ultracentrifugation tube and ultracentrifuged (40,000 rpm, 60 min, 4° C.) using an ultracentrifuge (Beckman, L-90K). To the obtained pellets was added a suspending buffer [50 mM Tris-HCl, 1 mM EDTA, Protease inhibitor Complete (Roche), pH 7.4], and the pellets were suspended by pipetting. The protein concentration of this suspension was measured, diluted to 2 mg/mL to give cell membrane fractions of CHO-hMelR7 and CHO-hMT2 cells. […] Protein was quantified using BCA protein assay kit (Pierce) with BSA as the standard.
(§5) (4) Preparation of Membrane Fraction Suspension
(§6) Immediately before use, the membrane fractions of CHO-hMelR7 and CHO-hMT2 cells of the above-mentioned (3) were diluted 20-fold with assay buffer (50 mM Tris-HCl, pH 7.7).
(§7) Iodomelatonin (#NEX236, PerkinElmer) was diluted with the assay buffer to 400 pM for MT1 and 1 nM for MT2.
(§8) Then, a test compound (compound solution diluted with DMSO to 200-fold of the final measurement concentration) was added by 2 μL. 2 μL of DMSO was added to each well of the total binding control section, and 100 μM cold Melatonin solution (Sigma, diluted with DMSO to 100 μM) was added to each well of the nonspecific binding control section by 2 μL. Then, the membrane fraction suspension (100 μL) was added. […] Iodomelatonin solution of the above-mentioned (5) was added to each well mentioned above by 20 μL, and a binding reaction was carried out at 25° C. for 2.5 hr in a micromixer (TAITEC, Bioshaker M.BR-024).
(§9) Using a cell harvester (PerkinElmer), the binding reaction mixture in each well of the 96-well plate was transferred to a treated (immersed in 50 mM Tris, pH 7.7 in advance) filter plate (UniFilter GF/C, PerkinElmer) and filtered. After filtration, the plate was washed 4 times with the assay buffer, and dried in a dryer (42° C.) for 2 hr or more. 25 μL of a liquid scintillator (MicroScint O, PerkinElmer) was added to each well of the filter plate after drying, and the luminescence of scintillator was measured by TopCount (PerkinElmer) for 1 min.
(§10) Specific binding is a value obtained by subtracting nonspecific binding from the total binding. The binding inhibitory activity of the test compound is shown by the ratio of the value obtained by subtracting the measurement value when the test compound was added from the total binding, to the specific binding.

Row | IC50 [nM] | SMILES
15 | 0.37 | CC(=O)NCC=C1CCc2ccc3nc(C)oc3c21 [Example 3, N-[2-(2-Methyl-6,7-dihydro-8H-indeno[5,4-d][1,3]oxazol-8-ylidene)ethyl]acetamide]
16 | 0.24 | CC(=O)NCCC1=CCc2ccc3nc(C)oc3c21 [Example 4, N-[2-(2-Methyl-6H-indeno[5,4-d][1,3]oxazol-8-yl)ethyl]acetamide]
17 | 0.22 | CCC(=O)NCC=C1CCc2ccc3nc(C)oc3c21 [Example 5, N-[2-(2-Methyl-6,7-dihydro-8H-indeno[5,4-d][1,3]oxazol-8-ylidene)ethyl]propionamide]
18 | 0.43 | CC(=O)NCC=C1CCc2ccc3nc(CCCCc4ccccc4)oc3c21 [Example 6, N-{2-[2-(4-Phenylbutyl)-6,7-dihydro-8H-indeno[5,4-d][1,3]oxazol-8-ylidene]ethyl}acetamide]
19 | 0.22 | CC(=O)NCC=C1CCc2ccc3nc(C)sc3c21 [Example 8, N-[2-(2-Methyl-6,7-dihydro-8H-indeno[5,4-d][1,3]thiazol-8-ylidene)ethyl]acetamide]
20 | 0.41 | CCc1nc2ccc3c(c2o1)C(CCNC(C)=O)CC3 (stereo not shown) [Example 22, N-[2-(2-Ethyl-7,8-dihydro-6H-indeno[5,4-d][1,3]oxazol-8-yl)ethyl]acetamide]
21 | 0.75 | CC(=O)NCCC1CCc2ccc3nc(C4CC4)oc3c21 (stereo not shown) [Example 29, N-[2-(2-Cyclopropyl-7,8-dihydro-6H-indeno[5,4-d][1,3]oxazol-8-yl)ethyl]acetamide]

Molecular target: human melatonin 1 receptors (human MT1 receptors) (Homo sapiens (Human), UniProt P48039)
Sequence (P48039 whole entry): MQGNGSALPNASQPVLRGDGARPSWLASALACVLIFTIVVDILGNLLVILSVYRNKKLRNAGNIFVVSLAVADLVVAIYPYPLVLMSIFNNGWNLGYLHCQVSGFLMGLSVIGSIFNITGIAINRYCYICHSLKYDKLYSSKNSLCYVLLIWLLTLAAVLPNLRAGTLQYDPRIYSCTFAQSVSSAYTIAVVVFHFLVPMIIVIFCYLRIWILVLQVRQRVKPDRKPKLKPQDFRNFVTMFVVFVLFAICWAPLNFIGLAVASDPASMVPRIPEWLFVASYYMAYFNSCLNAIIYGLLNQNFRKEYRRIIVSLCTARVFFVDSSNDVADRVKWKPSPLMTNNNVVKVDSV
Assay: Melatonin receptor binding assay, 2-[125I] Iodomelatonin, CHO-hMelR7 cell membrane fraction
Conditions: binding inhibition of 2-[125I] Iodomelatonin, CHO-hMelR7 membranes, 25° C., 2.5 hr
Description: as §1
(1) Preparation of CHO-hMelR7 Cells Expressing Human Melatonin 1 Receptors
as §2, §3, §4, §5, §6, §7, §8, §9, §10

Row | IC50 [nM] | SMILES
22 | 0.33 | CC(=O)NCC=C1CCc2ccc3nc(C)oc3c21 [Example 3, N-[2-(2-Methyl-6,7-dihydro-8H-indeno[5,4-d][1,3]oxazol-8-ylidene)ethyl]acetamide]
23 | 0.068 | CC(=O)NCCC1=CCc2ccc3nc(C)oc3c21 [Example 4, N-[2-(2-Methyl-6H-indeno[5,4-d][1,3]oxazol-8-yl)ethyl]acetamide]
24 | 0.25 | CCC(=O)NCC=C1CCc2ccc3nc(C)oc3c21 [Example 5, N-[2-(2-Methyl-6,7-dihydro-8H-indeno[5,4-d][1,3]oxazol-8-ylidene)ethyl]propionamide]
25 | 0.079 | CC(=O)NCC=C1CCc2ccc3nc(CCCCc4ccccc4)oc3c21 [Example 6, N-{2-[2-(4-Phenylbutyl)-6,7-dihydro-8H-indeno[5,4-d][1,3]oxazol-8-ylidene]ethyl}acetamide]
26 | 0.19 | CC(=O)NCC=C1CCc2ccc3nc(C)sc3c21 [Example 8, N-[2-(2-Methyl-6,7-dihydro-8H-indeno[5,4-d][1,3]thiazol-8-ylidene)ethyl]acetamide]
27 | 0.36 | CCc1nc2ccc3c(c2o1)C(CCNC(C)=O)CC3 (stereo not shown) [Example 22, N-[2-(2-Ethyl-7,8-dihydro-6H-indeno[5,4-d][1,3]oxazol-8-yl)ethyl]acetamide]
28 | 0.66 | CC(=O)NCCC1CCc2ccc3nc(C4CC4)oc3c21 (stereo not shown) [Example 29, N-[2-(2-Cyclopropyl-7,8-dihydro-6H-indeno[5,4-d][1,3]oxazol-8-yl)ethyl]acetamide]
